The target in data set [1] is T1, Butyrylcholinesterase (BuChE) (Homo sapiens, UniProt P06276).
T1 construct: from tissue; host or cells: human serum
The data set can be described thus: Inhibition of BuChE-mediated BTCH hydrolysis. Format: biochemical. Here is the method:
To assay the inhibitory effects of triterpenoids on Butyrylcholinesterase (BuChE), butyrylthiocholine (BTCH) was used as a substrate for BuChE, The total volume of the system was 100 µL. Including 2 µL DMSO/inhibitor, 2 µL human serum, 84 µL buffered PBS (pH 7.4, 0.1 M), 10 µL substrate iodised butyrylthiocholine (0.3 mM, final concentration) and 2 µL developer 5–5′-dithiobis(2-nitrobenzoic acid) (DTNB) (1 mM, final concentration). The assay protocol of […] was depicted previously. All measurements were performed in triplicates.

The next data set relates to 3T3-L1 cells. As to the kind of experiment: Cytotoxicity assay (CCK-8) in 3T3-L1 cells. The data set is classed as cell-based. The settings on record: CCK-8, 48 h, 0–100 µM. The protocol: The effect of compounds 39 and 41 on cell viability of the 3T3-L1cells was measured using Cell Counting Kit-8 (Dalian Meilun Biotechnology Co., Ltd., Dalian, China). Briefly, 3T3-L1 cells (5 × 10^4/mL, 100 µL) were seeded in the 96-well plate, After 24 h incubation, then the cells were treated with different concentrations of compounds 39 and 41 (0–100 µM) for another 48 h. Then, CCK-8 (10%, v/v, 100 µL) was added to each well and incubated at 37 °C for additional 2 h. The absorbance was determined by microplate reader at 450 nm. The percentage of cell viability was calculated towards control. Each condition included replicate wells with at least four independent repeats.

The target in another data set is T2, Pancreatic lipase (PL) (Sus scrofa, UniProt P00591).
T2 construct: purchased Sigma Aldrich type II, Lot.SLBN9099V
T2 sequence (P00591 1-450): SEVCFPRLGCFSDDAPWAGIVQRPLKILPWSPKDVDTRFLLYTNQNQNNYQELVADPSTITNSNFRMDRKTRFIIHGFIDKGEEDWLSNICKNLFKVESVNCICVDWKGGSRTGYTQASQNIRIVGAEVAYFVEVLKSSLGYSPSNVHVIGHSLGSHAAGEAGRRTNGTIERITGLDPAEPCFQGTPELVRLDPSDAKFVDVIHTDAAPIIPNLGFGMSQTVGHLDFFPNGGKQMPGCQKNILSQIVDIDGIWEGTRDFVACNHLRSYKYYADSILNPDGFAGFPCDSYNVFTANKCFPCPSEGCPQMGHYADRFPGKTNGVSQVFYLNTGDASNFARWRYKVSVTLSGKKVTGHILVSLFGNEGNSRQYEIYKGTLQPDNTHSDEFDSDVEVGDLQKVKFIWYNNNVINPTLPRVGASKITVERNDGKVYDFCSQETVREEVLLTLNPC
As to the kind of experiment: Inhibition of PL-mediated 4-MUO hydrolysis. The data set is classed as biochemical. The settings on record: for Inhibition mode PL / Ki / IC50: 4-MUO substrate; for Ki: Lineweaver–Burk second plot; for IC50: mean ± SD (n = 3); for Reversibility of PL inhibition: dose-response curves not affected by pre-incubation times. The protocol:
In addition, the background fluorescence in the absence of an enzyme source (PL) (add the same amount of citrate-Na2HPO4 buffer) was measured. […] Then start the reaction by adding 2 µL of 4-MUO probe (3 µM, final concentration). The fluorescence signal of 4-MU (hydrolytic metabolite) was detected by multi-mode microplate reader (SpectraMax M4, Molecular Devices, Urstein, Austria) with continuous oscillation for 20 min and recorded and analysed at 60 s intervals. The excitation wavelength and emission wavelength of 4-MU were set at 340 nm and 460 nm, respectively, and the gain value was 500.
Subsequently, various concentrations of substrates (selected according to Km) and different concentrations of inhibitors were used to determine the corresponding reaction rate, and the second slope graph of the Lineweaver–Burk diagram was used as a function of the inhibitor to calculate the corresponding inhibition constant (Ki) value. All kinetic data were fitted by the following kinetic equations (a–c), for competitive (a), non-competitive (b) and mixed inhibition (c): (a) V=(VmaxS)/[Km(1+I/Ki)+S] (b) V=(VmaxS)/[(Km+S)×(1+I/Ki)] (c) V=(VmaxS)/[(Km+S)×(1+I/αKi)] where V is the hydrolytic velocity of the reaction, Vmax is the maximum velocity. S and I are substrate (4-MUO, NLMe) and inhibitor (compound 39/41) concentrations, respectively. Ki is the inhibition constant of the tested inhibitor against the target PL and hCES1A; Km is the Michaelis constant (the substrate concentration at half of the Vmax).
All measurements were made in triplicate and the data obtained in the experiment were shown as mean ± SD.

T1 sequence (P06276 29-602): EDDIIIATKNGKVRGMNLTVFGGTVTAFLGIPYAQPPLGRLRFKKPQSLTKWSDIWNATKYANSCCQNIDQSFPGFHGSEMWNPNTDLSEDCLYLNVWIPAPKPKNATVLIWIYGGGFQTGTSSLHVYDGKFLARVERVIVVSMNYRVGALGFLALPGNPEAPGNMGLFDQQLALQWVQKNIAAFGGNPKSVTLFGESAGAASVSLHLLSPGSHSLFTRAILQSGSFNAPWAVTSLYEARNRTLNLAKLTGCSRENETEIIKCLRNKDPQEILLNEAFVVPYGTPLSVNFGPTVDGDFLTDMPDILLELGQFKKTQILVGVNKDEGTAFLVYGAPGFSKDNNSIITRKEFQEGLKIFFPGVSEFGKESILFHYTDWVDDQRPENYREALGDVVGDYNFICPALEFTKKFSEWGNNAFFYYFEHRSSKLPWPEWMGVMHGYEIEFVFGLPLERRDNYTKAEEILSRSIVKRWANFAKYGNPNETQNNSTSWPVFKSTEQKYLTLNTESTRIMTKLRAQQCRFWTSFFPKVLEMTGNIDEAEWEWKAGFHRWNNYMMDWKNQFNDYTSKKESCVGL

Take `CC1(C)CCC2(C(=O)O)CCC3(C)C(=CCC4C5(C)C=C(O)C(=O)C(C)(C)C5CCC43C)C2C1` (stereo not drawn) [Compound 39]: the half-inhibitory concentration (IC50) in data set [1] is more than 100000 nM. Further, in the data set on 3T3-L1 cells, the “concentration below which almost non-toxic to 3T3-L1 (cell viability)” value is given as “below 20 µM”. Further, on Pancreatic lipase (PL), the “Inhibition mode PL” value is reported as “Mixed”; the affinity, expressed as Ki, was 1.45 µM; it took 2.13 ± 0.19 µM to reach half-maximal inhibition (IC50); the “Reversibility of PL inhibition” value was “reversible inhibitors”.

In turn, `CC(=O)OC1CCC2(C)C(CCC3(C)C2CC=C2C4C(C)C(C)CCC4(C(=O)O)CCC23C)C1(C)C` (stereo not drawn) [Compound 41] registered an IC50 in data set [1] of more than 100000 nM. In the data set on 3T3-L1 cells, the “concentration below which almost non-toxic to 3T3-L1 (cell viability)” value is listed as less than 10 µM. At Pancreatic lipase (PL), the “Inhibition mode PL” value was “Mixed”, the Ki was found to be 0.58 µM, the IC50 is 0.75 ± 0.12 µM and the “Reversibility of PL inhibition” value was “reversible inhibitors”.

Broadly, the IC50 is the concentration that gives 50% inhibition. Lower therefore signals greater potency in that assay. What is called Ki is the dissociation constant of the complex between target and ligand, obtained from inhibition or displacement.

These data come from publication PMC8812735, “Discovery of triterpenoids as potent dual inhibitors of pancreatic lipase and human carboxylesterase 1” (Journal of Enzyme Inhibition and Medicinal Chemistry, 2022).
